EP4567035A1, “NOVEL COMPOUND AS HYPOXIA-INDUCIBLE FACTOR 1(HIF-1) INHIBITOR OR VASCULAR ENDOTHELIAL GROWTH FACTOR (VEGF) INHIBITOR, AND PHARMACEUTICAL COMPOSITION COMPRISING SAME” (Nextgen Bioscience Co., Ltd., priority 2022, dated 2024)
Where two headings read alike, the source gives them in different places.

Key:
[1] = target: T1, HIF-1α (Homo sapiens, UniProt Q16665); test: Analysis of HIF-1α protein expression (Western blot) in ARPE-19 cells under mixed hypoxic condition; format: cell-based; conditions: values marked * in the table, mixed hypoxic condition (1% oxygen + CoCl2) for 24 hours, concentration range at which HIF-1α expression is reduced by 50% vs untreated control, read-out: IC50 HIF-1α, Hypoxia(24h)
T1 construct: endogenous in cells; host or cells: ARPE-19 (ATCC CRL-2302)
In short: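 ARPE-19 cells were pretreated 16 h or 2 h with compound (0.1 nM–10 µM, serum-free DMEM/F12), then held 1 h or 24 h in mixed hypoxia (1% O2 plus CoCl2). HIF-1α was quantified by Western blot against β-actin; the concentration range giving ≥50% reduction vs untreated control was reported.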

[2] = test system: VEGF; test: Evaluation of VEGF protein secretion level (Human VEGF ELISA) in ARPE-19 cell medium under hypoxic conditions; format: cell-based
In short: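 Human ARPE-19 cells were pretreated 2 h with compound (0.1 nM–10 µM, in DMEM/F12 with 1% FBS), then held 24 h in hypoxia (1% O2, 5% CO2). Secreted VEGF in the supernatant was quantified by ELISA (A450). The value is the concentration range giving ≥50% VEGF reduction versus untreated control.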

[3] = ARPE-19 cells, pretreated 2 hours, 24 hours hypoxic conditions, secreted VEGF in medium supernatant by ELISA, concentration range reducing VEGF by 50% vs untreated control, read-out: IC50 VEGF
[4] = ARPE-19 cells, pretreated 2 hours, 24 hours hypoxic conditions, ELISA, read-out: concentration at which the secreted VEGF protein level was suppressed to less than 50%
[5] = Experimental Example 2 (HIF-1α Western blot), read-out: concentration at which the expression level of VEGF was suppressed to less than 50%

T1 sequence (Q16665 whole entry): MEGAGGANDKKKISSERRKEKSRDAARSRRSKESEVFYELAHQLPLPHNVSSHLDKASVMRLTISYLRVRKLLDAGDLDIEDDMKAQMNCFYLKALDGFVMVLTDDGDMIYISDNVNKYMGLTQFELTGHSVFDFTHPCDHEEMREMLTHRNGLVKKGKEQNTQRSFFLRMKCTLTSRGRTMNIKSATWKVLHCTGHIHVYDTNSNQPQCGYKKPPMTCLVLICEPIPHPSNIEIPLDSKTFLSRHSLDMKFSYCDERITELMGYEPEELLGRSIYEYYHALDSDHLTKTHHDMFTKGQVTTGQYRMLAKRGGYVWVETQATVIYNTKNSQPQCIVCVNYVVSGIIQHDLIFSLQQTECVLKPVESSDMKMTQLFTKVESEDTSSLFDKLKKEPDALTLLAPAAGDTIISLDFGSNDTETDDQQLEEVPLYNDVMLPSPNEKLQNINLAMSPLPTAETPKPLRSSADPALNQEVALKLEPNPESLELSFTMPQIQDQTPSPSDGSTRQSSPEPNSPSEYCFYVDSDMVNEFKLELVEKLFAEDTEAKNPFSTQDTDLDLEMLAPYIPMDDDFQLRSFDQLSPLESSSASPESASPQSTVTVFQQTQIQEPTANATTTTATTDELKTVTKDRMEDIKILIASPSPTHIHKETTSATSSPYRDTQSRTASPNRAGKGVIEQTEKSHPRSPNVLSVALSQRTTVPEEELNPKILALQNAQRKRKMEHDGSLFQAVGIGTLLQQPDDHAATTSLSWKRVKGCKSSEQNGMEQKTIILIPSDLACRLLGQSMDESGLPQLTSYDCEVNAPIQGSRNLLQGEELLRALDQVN

DC50 [1] [nM]	IC50 [2, 3] [nM]	IC50 [2, 4] [nM]	IC50 [2, 5] [nM]	Structure (SMILES)
< 100	100 to 1000	–	–	Cn1cc(-c2cc(F)cc(CNC(=O)c3ncnc4nc(C5CC6CC6C5)[nH]c34)c2)cn1 (stereo not shown) [Example 78, 8-(Bicyclo[3.1.0]hexan-3-yl)-N-(3-fluoro-5-(1-methyl-1H-pyrazol-4-yl)benzyl)-7H-purine-6-carboxamide]
< 100	< 100	–	–	O=C(NCc1cc(F)cc(-c2cnn(-c3ccc(F)cc3)c2)c1)c1ncnc2nc(C3CCC(F)(F)C3)[nH]c12 (stereo not shown) [Example 80, 8-(3,3-Difluorocyclopentyl)-N-(3-fluoro-5-(1-(4-fluorophenyl)-1H-pyrazol-4-yl)benzyl)-7H-purine-6-carboxamide]
< 100	100 to 1000	–	–	O=C(NCc1cc(F)cc(-c2cnn(-c3cccc(F)c3)c2)c1)c1ncnc2nc(C3CCC(F)(F)C3)[nH]c12 (stereo not shown) [Example 81, 8-(3,3-Difluorocyclopentyl)-N-(3-fluoro-5-(1-(3-fluorophenyl)-1H-pyrazol-4-yl)benzyl)-7H-purine-6-carboxamide]
< 100	< 100	< 100	< 100	O=C(NCc1cc(F)cc(-c2cnn(-c3ccc(F)nc3)c2)c1)c1ncnc2nc(C3CCC(F)(F)C3)[nH]c12 (stereo not shown) [Example 82, 8-(3,3-Difluorocyclopentyl)-N-(3-fluoro-5-(1-(6-fluoropyridin-3-yl)-1H-pyrazol-4-yl)benzyl)-7H-purine-6-carboxamide]
< 100	< 100	< 100	< 100	O=C(NCc1cc(F)cc(-c2cnn(-c3cccnc3)c2)c1)c1ncnc2nc(C3CCC(F)(F)C3)[nH]c12 (stereo not shown) [Example 83, 8-(3,3-Difluorocyclopentyl)-N-(3-fluoro-5-(1-(pyridin-3-yl)-1H-pyrazol-4-yl)benzyl)-7H-purine-6-carboxamide]
< 100	1000 to 10000	–	–	O=C(NCc1cc(F)cc(-c2cnn(-c3ccc(F)cc3)c2)c1)c1ncnc2nc([C@H]3CCCO3)[nH]c12 [Example 85, (R)-N-(3-fluoro-5-(1-(4-fluorophenyl)-1H-pyrazol-4-yl)benzyl)-8-(tetrahydrofuran-2-yl)-7H-purine-6-carboxamide]
100 to 1000	100 to 1000	–	–	O=C1CC[C@@H](c2nc3ncnc(C(=O)NCc4cc(F)cc(-c5cnn(-c6ccc(F)cc6)c5)c4)c3[nH]2)C1 [Example 86, (R)-N-(3-fluoro-5-(1-(4-fluorophenyl)-1H-pyrazol-4-yl)benzyl)-8-(3-oxocyclopentyl)-7H-purine-6-carboxamide]
< 100	100 to 1000	–	–	O=C(NCc1cc(F)cc(-c2cnn(-c3ccc(F)c(Cl)c3)c2)c1)c1ncnc2nc(C3CCCC3)[nH]c12 [Example 87, N-(3-(1-(3-chloro-4-fluorophenyl)-1H-pyrazol-4-yl)-5-fluorobenzyl)-8-cyclopentyl-7H-purine-6-carboxamide]
100 to 1000	100 to 1000	–	–	O=C1CC[C@H](c2nc3ncnc(C(=O)NCc4cc(F)cc(-c5cnn(-c6ccc(F)cc6)c5)c4)c3[nH]2)C1 [Example 88, (S)-N-(3-fluoro-5-(1-(4-fluorophenyl)-1H-pyrazol-4-yl)benzyl)-8-(3-oxocyclopentyl)-7H-purine-6-carboxamide]
100 to 1000	100 to 1000	–	–	O=C(NCc1cc(F)cc(-c2cnn(-c3ccc(F)cc3)c2)c1)c1ncnc2nc(C3CC(F)(F)C3)[nH]c12 [Example 92, 8-(3,3-Difluorocyclobutyl)-N-(3-fluoro-5-(1-(4-fluorophenyl)-1H-pyrazol-4-yl)benzyl)-7H-purine-6-carboxamide]
< 100	100 to 1000	–	–	O=C(NCc1cc(F)cc(-c2cnn(-c3ccc(F)cc3)c2)c1)c1nccc2nc(C3CCCC3)[nH]c12 [Example 93, 2-Cyclopentyl-N-(3-fluoro-5-(1-(4-fluorophenyl)-1H-pyrazol-4-yl)benzyl)-3H-imidazo[4,5-c]pyridine-4-carboxamide]
100 to 1000	100 to 1000	–	–	O=C(NCc1cccc(-c2cnn(-c3ccc(F)cc3)c2)c1F)c1ncnc2nc(C3CCCC3)[nH]c12 [Example 95, 8-Cyclopentyl-N-(2-fluoro-3-(1-(4-fluorophenyl)-1H-pyrazol-4-yl)benzyl)-7H-purine-6-carboxamide]
100 to 1000	100 to 1000	–	–	CC1(C)CC(c2nc3ncnc(C(=O)NCc4cc(F)cc(-c5cnn(-c6ccc(F)cc6)c5)c4)c3[nH]2)C1 [Example 97, 8-(3,3-Dimethylcyclobutyl)-N-(3-fluoro-5-(1-(4-fluorophenyl)-1H-pyrazol-4-yl)benzyl)-7H-purine-6-carboxamide]
1000 to 10000	> 10000	–	–	O=C(NCc1cc(F)cc(-c2cnn(-c3ccc(F)cc3)c2)c1)c1ncnc2nc(C3CC4(C3)CC(F)(F)C4)[nH]c12 [Example 98, 8-(6,6-Difluorospiro[3.3]heptan-2-yl)-N-(3-fluoro-5-(1-(4-fluorophenyl)-1H-pyrazol-4-yl)benzyl)-7H-purine-6-carboxamide]
1000 to 10000	> 10000	–	–	O=C(NCc1cc(F)cc(-c2cnn(-c3ccc(F)cc3)c2)c1)c1ncnc2nc(C34CC(C3)C4)[nH]c12 [Example 99, 8-(Bicyclo[1.1.1]pentan-1-yl)-N-(3-fluoro-5-(1-(4-fluorophenyl)-1H-pyrazol-4-yl)benzyl)-7H-purine-6-carboxamide]
1000 to 10000	1000 to 10000	–	–	O=C(NCc1cc(F)cc(-c2cnn(-c3ccc(F)cc3)c2)c1)c1ncnc2nc(C3CC4(CCC4)C3)[nH]c12 [Example 100, N-(3-fluoro-5-(1-(4-fluorophenyl)-1H-pyrazol-4-yl)benzyl)-8-(spiro[3.3]heptan-2-yl)-7H-purine-6-carboxamide]
100 to 1000	1000 to 10000	–	–	O=C(NCc1cc(F)cc(-c2cnn(-c3ccc(F)cc3)c2)c1)c1ncnc2nc(C34CC(F)(C3)C4)[nH]c12 [Example 101, N-(3-fluoro-5-(1-(4-fluorophenyl)-1H-pyrazol-4-yl)benzyl)-8-(3-fluorobicyclo[1.1.1]pentan-1-yl)-7H-purine-6-carboxamide]
< 100	100 to 1000	–	–	O=C(NCc1cc(Cl)cc(-c2cnn(-c3ccc(F)cc3)c2)c1)c1ncnc2nc(C3CCCC3)[nH]c12 [Example 104, N-(3-chloro-5-(1-(4-fluorophenyl)-1H-pyrazol-4-yl)benzyl)-8-cyclopentyl-7H-purine-6-carboxamide]
> 10000	> 10000	–	–	O=C(Nc1cc(F)cc(-c2cnn(-c3ccc(F)cc3)c2)c1)c1ncnc2nc(C3CCCC3)[nH]c12 [Example 105, 8-Cyclopentyl-N-(3-fluoro-5-(1-(4-fluorophenyl)-1H-pyrazol-4-yl)phenyl)-7H-purine-6-carboxamide]
> 10000	> 10000	–	–	O=C(NCc1cc(F)cc(-c2cnn(-c3ccc(F)cc3)c2)c1)c1ncnc2nc(C3CC(C(=O)O)C3)[nH]c12 (stereo not shown) [Example 106, 3-(6-((3-Fluoro-5-(1-(4-fluorophenyl)-1H-pyrazol-4-yl)benzyl)carbamoyl)-7H-purin-8-yl)cyclobutanecarboxylic acid]
> 10000	> 10000	–	–	O=C(NCc1cc(F)cc(-c2cnn(-c3ccc(F)cc3)c2)c1)c1ccnc2nc(C3CCCC3)[nH]c12 [Example 107, 2-Cyclopentyl-N-(3-fluoro-5-(1-(4-fluorophenyl)-1H-pyrazol-4-yl)benzyl)-1H-imidazo [4,5-b] pyridine-7-carboxamide]
> 10000	> 10000	–	–	O=C(NCc1ccc(-c2cnn(-c3ccc(F)cc3)c2)cc1)c1ncnc2nc(C3CCCC3)[nH]c12 [Example 108, 8-Cyclopentyl-N-(4-(1-(4-fluorophenyl)-1H-pyrazol-4-yl)benzyl)-7H-purine-6-carboxamide]
> 10000	> 10000	–	–	O=C(NCc1ccc(-c2cnn(-c3ccc(F)cc3)c2)c(F)c1)c1ncnc2nc(C3CCCC3)[nH]c12 [Example 109, 8-Cyclopentyl-N-(3-fluoro-4-(1-(4-fluorophenyl)-1H-pyrazol-4-yl)benzyl)-7H-purine-6-carboxamide]
< 100	100 to 1000	–	–	O=C(NCc1cc(F)cc(-c2cnn(-c3ccc(F)cc3)c2)c1)c1ncnc2nc(C3CC4(CC4)C3)[nH]c12 [Example 111, N-(3-fluoro-5-(1-(4-fluorophenyl)-1H-pyrazol-4-yl)benzyl)-8-(spiro[2.3]hexan-5-yl)-7H-purine-6-carboxamide]
> 10000	> 10000	–	–	CN(Cc1cc(F)cc(-c2cnn(-c3ccc(F)cc3)c2)c1)C(=O)c1ncnc2nc(C3CCCC3)[nH]c12 [Example 112, 8-Cyclopentyl-N-(3-fluoro-5-(1-(4-fluorophenyl)-1H-pyrazol-4-yl)benzyl)-N-methyl-7H-purine-6-carboxamide]
< 100	100 to 1000	–	–	O=C(NCc1cc(F)cc(-c2cnn(-c3ccc(F)cc3)c2)c1)c1ncnc2nc(C3CC4CC4C3)[nH]c12 (stereo not shown) [Example 113, 8-(Bicyclo[3.1.0]hexan-3-yl)-N-(3-fluoro-5-(1-(4-fluorophenyl)-1H-pyrazol-4-yl)benzyl)-7H-purine-6-carboxamide]
100 to 1000	100 to 1000	–	–	O=C(NCc1cc(F)cc(-c2cnn(-c3ccc(F)cc3)c2)c1)c1ncnc2nc(C3CC4CCC3C4)[nH]c12 (stereo not shown) [Example 114, 8-(Bicyclo[2.2.1]heptan-2-yl)-N-(3-fluoro-5-(1-(4-fluorophenyl)-1H-pyrazol-4-yl)benzyl)-7H-purine-6-carboxamide]
